Experimental data reported in the supplement of paper PMC10307832.

Compound: CC1=C(C(=NN1)C)CC2=C(C3=C(S2)N(C(=O)N(C3=O)C)CC(C)C)C(=O)N4C[C@@H](CO4)O + Cc1cc(Nc2cc(N3CCN(C)CC3)nc(Sc3ccc(NC(=O)C4CC4)cc3)n2)n[nH]1 [Tozasertib] (partner 0.1 µM)
Experiment: relative viability (nuclei count vs DMSO), 5 days (fraction); higher = more cells survive
Conditions: first compound 0.0025 µM
Summary of the method: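 A single step with final 0.05% Triton X-100, 1% formaldehyde and 1 ug/ml Hoechst fixed the cells and stained nuclei 5 days after treatment. Lung cancer cell lines in 1536-well plates had been treated by pin tool the day after seeding with one drug alone or a fixed anchor-drug dose plus five library-drug doses (not always all listed) in √10 steps, and nuclei were counted on 4× images. Relative viability is the ratio of nuclei in treated wells to nuclei in vehicle wells, taken as the median of duplicate plates.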

Cell Line	relative viability
201T	1.05
NCI-H1915	0.443
HCC-827	0.475
LXF-289	0.205
NCI-H23	0.784
NCI-H647	0.2
CAL-12T	0.334
NCI-H1651	0.702
EPLC-272H	0.267
NCI-H1355	0.527
NCI-H3122	0.37
NCI-H1437	0.399
NCI-H1755	0.71
HCC-15	0.458
NCI-H1793	0.453
PC-14	0.593
EKVX	0.398
LC-2-ad	0.53
NCI-H1944	0.263
NCI-H1975	0.801
RERF-LC-KJ	0.461
ABC-1	0.197
NCI-H358	0.12
NCI-H650	0.77
PC-3 [JPC-3]	0.932

Same assay, conditions: first compound 0.007906 µM

Cell Line	relative viability
201T	0.92
NCI-H1915	0.436
HCC-827	0.437
LXF-289	0.213
NCI-H23	0.42
NCI-H647	0.265
CAL-12T	0.315
NCI-H1651	0.802
EPLC-272H	0.227
NCI-H1355	0.437
NCI-H3122	0.242
NCI-H1437	0.409
NCI-H1755	0.571
HCC-15	0.519
NCI-H1793	0.28
PC-14	0.549
EKVX	0.404
LC-2-ad	0.462
NCI-H1944	0.269
NCI-H1975	0.682
RERF-LC-KJ	0.529
ABC-1	0.196
NCI-H358	0.0943
NCI-H650	0.747
PC-3 [JPC-3]	0.74

Same assay, conditions: first compound 0.025 µM

Cell Line	relative viability
201T	0.915
NCI-H1915	0.446
HCC-827	0.393
LXF-289	0.18
NCI-H23	0.412
NCI-H647	0.269
CAL-12T	0.366
NCI-H1651	0.58
EPLC-272H	0.324
NCI-H1355	0.529
NCI-H3122	0.376
NCI-H1437	0.408
NCI-H1755	0.543
HCC-15	0.435
NCI-H1793	0.327
PC-14	0.525
EKVX	0.432
LC-2-ad	0.494
NCI-H1944	0.246
NCI-H1975	0.791
RERF-LC-KJ	0.469
ABC-1	0.216
NCI-H358	0.0965
NCI-H650	0.702
PC-3 [JPC-3]	0.867

Same assay, conditions: first compound 0.07906 µM

Cell Line	relative viability
201T	0.904
NCI-H1915	0.446
HCC-827	0.428
LXF-289	0.186
NCI-H23	0.334
NCI-H647	0.189
CAL-12T	0.332
NCI-H1651	0.625
EPLC-272H	0.259
NCI-H1355	0.566
NCI-H3122	0.414
NCI-H1437	0.409
NCI-H1755	0.486
HCC-15	0.469
NCI-H1793	0.271
PC-14	0.614
EKVX	0.394
LC-2-ad	0.44
NCI-H1944	0.25
NCI-H1975	0.905
RERF-LC-KJ	0.485
ABC-1	0.19
NCI-H358	0.11
NCI-H650	0.692
PC-3 [JPC-3]	0.932

Same assay, conditions: first compound 0.25 µM

Cell Line	relative viability
201T	1.03
NCI-H1915	0.45
HCC-827	0.397
LXF-289	0.22
NCI-H23	0.388
NCI-H647	0.322
CAL-12T	0.304
NCI-H1651	0.767
EPLC-272H	0.609
NCI-H1355	0.623
NCI-H3122	0.485
NCI-H1437	0.438
NCI-H1755	0.593
HCC-15	0.448
NCI-H1793	0.24
PC-14	0.598
EKVX	0.422
LC-2-ad	0.426
NCI-H1944	0.253
NCI-H1975	0.739
RERF-LC-KJ	0.492
ABC-1	0.255
NCI-H358	0.112
NCI-H650	0.739
